We go through 21 molecules from ChEMBL document CHEMBL5625235, “Discovery of X10g as a selective PROTAC degrader of Hsp90α protein for treating breast cancer” (Eur J Med Chem, 2023).

As usually defined, the IC50 is the midpoint of a concentration-inhibition curve.

One series concerns MX1. Description: Antiproliferative activity against human MX1 cells assessed as inhibition of cell proliferation incubated for 72 hrs by MTT assay. The conditions noted are these: MX1, 72 h. In kind it is functional, cell-based.
Series [1] concerns MCF7. Description: Antiproliferative activity against human MCF7 cells assessed as inhibition of cell proliferation incubated for 72 hrs by MTT assay. Type of series: functional, cell-based. The conditions noted are these: MCF7, 72 h. (In general: Tetrazolium assays rely on reduction of a dye to a coloured formazan, in cell work by metabolically active cells.)
The target in series [2] is Protein cereblon/Heat shock protein HSP 90-alpha (Homo sapiens, UniProt P07900+Q96SW2). Nature of the series: PROTAC activity at CRBN/HSP90alpha in human MCF7 cells assessed as induction of HSP90alpha degradation at 0.5 uM incubated for 8 hrs by Western blot analysis. Type of series: cell-based. In general terms: Immunoblotting shows a protein as a band on a membrane.

Series [3] has as its target Protein cereblon/Heat shock protein HSP 90-beta (Homo sapiens) (UniProt P08238+Q96SW2). Description: PROTAC activity at CRBN/HSP90beta in human MCF7 cells assessed as induction of HSP90beta degradation at 0.5 uM incubated for 8 hrs by Western blot analysis. Type of series: cell-based.
For a further series, the system named is MDA-MB-468. Description: Antiproliferative activity against human MDA-MB-468 cells assessed as inhibition of cell proliferation incubated for 72 hrs by MTT assay. In kind it is functional, cell-based. The conditions noted are these: MDA-MB-468, 72 h.
In a further series the test system is MDA-MB-231. Nature of the series: Antiproliferative activity against human MDA-MB-231 cells assessed as inhibition of cell proliferation incubated for 72 hrs by MTT assay. Type of series: functional, cell-based. The note with it: MDA-MB-231, 72 h.
Series [4] concerns MCF7. Nature of the series: Potency index, ratio of AT13387 IC50 to test compound IC50 for antiproliferative activity against human MCF7 cells assessed as inhibition of cell proliferation incubated for 72 hrs by MTT assay. In kind it is functional.
In series [5] the target is T1, Heat shock protein HSP 90-alpha (Homo sapiens, UniProt P07900). Description: Inhibition of 6His-tagged human HSP90alpha N-terminal domain (1 to 223 residues) expressed in Escherichia coli BL21 DE3 cells incubated for 24 hrs by fluorescence polarization assay. On the technique in general: In fluorescence polarisation assays a small probe gives low polarisation when free and higher when bound to something large.

Series [6] concerns the target Heat shock protein HSP 90-beta (Homo sapiens, UniProt P08238). Description: Inhibition of HSP90beta (unknown origin) incubated for 24 hrs by fluorescence polarization assay.
For series [7], the target named is T1, Heat shock protein HSP 90-alpha. Nature of the series: Induction of HSP90alpha degradation in human MCF7 cells at 0.5 uM incubated for 8 hrs by Western blot analysis. In kind it is cell-based.
A short description of series [8]: Toxicity in BALB/c mouse implanted with mouse 4T1 cells assessed as effect on body weight at 50 mg/kg, ip administered twice a week and measured after 20 days. In kind it is organism-based. The conditions noted are these: in vivo, 480 h, time 20 day.
The test system of series [9] is 4T1. Description: Antitumor activity against mouse 4T1 cells implanted in BALB/c mouse assessed as reduction in tumor weight at 50 mg/kg, ip administered twice a week and measured after 20 days. In kind it is functional, organism-based. The conditions noted are these: time 20.0 day.
Series [10] relates to 4T1. Nature of the series: Antitumor activity against mouse 4T1 cells implanted in BALB/c mouse assessed as tumor growth inhibition at 50 mg/kg, ip administered twice a week and measured after 20 days relative to control. The conditions noted are these: 4T1, 480 h, time 20 day, read-out: TGI. In kind it is functional.
The target in series [11] is T1, Heat shock protein HSP 90-alpha. Nature of the series: Induction of HSP90alpha degradation in human MCF7 cells at 0.5 uM incubated for 8 hrs in presence of pomalidomide by Western blot analysis. In kind it is cell-based.

Activity calls are given as the source filed them. The calls are words filed in the database; no cut-off is given here.

Sequence of Heat shock protein HSP 90-beta (P08238 whole entry): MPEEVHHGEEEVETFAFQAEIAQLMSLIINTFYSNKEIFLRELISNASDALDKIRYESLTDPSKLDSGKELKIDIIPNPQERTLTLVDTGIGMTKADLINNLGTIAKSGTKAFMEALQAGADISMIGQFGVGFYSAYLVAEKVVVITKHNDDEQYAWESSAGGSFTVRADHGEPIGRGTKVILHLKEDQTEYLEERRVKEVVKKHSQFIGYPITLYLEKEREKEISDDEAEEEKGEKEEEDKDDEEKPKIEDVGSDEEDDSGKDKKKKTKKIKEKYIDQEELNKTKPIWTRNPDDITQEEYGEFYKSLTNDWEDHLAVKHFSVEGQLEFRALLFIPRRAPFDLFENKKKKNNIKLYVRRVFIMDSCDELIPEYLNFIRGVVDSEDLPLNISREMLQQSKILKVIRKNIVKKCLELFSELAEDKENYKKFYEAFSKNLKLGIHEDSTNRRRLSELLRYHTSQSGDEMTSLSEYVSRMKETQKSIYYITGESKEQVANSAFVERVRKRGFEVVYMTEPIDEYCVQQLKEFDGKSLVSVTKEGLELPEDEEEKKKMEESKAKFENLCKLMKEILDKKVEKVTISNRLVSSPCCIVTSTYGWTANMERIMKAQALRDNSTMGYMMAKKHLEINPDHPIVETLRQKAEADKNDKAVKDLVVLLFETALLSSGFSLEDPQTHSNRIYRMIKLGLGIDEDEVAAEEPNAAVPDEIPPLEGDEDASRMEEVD

Consider `CC(C)c1cc(C(=O)N2Cc3ccc(CN4CCN(C(=O)CCCCNc5cccc6c5CN(C5CCC(=O)NC5=O)C6=O)CC4)cc3C2)c(O)cc1O` (centres undefined), for which the IC50 in the series on MX1 worked out at 2.02 µM; with MCF7 [1], 1.3 µM; in the series with MDA-MB-468, 13.2 µM; in the series on MDA-MB-231 it was 4.3 µM. Moreover, the outcome in series [2] and in series [3] was inactive.
For `CC(C)c1cc(C(=O)N2Cc3ccc(CN4CCN(CCCCCC(=O)Nc5cccc6c5C(=O)N(C5CCC(=O)NC5=O)C6=O)CC4)cc3C2)c(O)cc1O` (centres undefined), the IC50 in the series with MX1 came out at 0.03 µM; with MCF7 [1], 0.58 µM; with MDA-MB-468 it was 27.2 µM; in the series on MDA-MB-231, 5.11 µM. Besides, the outcome in [2] and in [3] was inactive.
Consider `CC(C)c1cc(C(=O)N2Cc3ccc(CN4CCN(CCCCC(=O)Nc5cccc6c5C(=O)N(C5CCC(=O)NC5=O)C6=O)CC4)cc3C2)ccc1O` (centres undefined), for which the IC50 was determined as 76.6 µM in the series with MX1, 48.2 µM in the series with MCF7 [1], 87.1 µM in the series on MDA-MB-468 and 94.2 µM in the series on MDA-MB-231.
As to `CC(C)c1cc(C(=O)N2Cc3ccc(CN4CCN(CCC(=O)Nc5cccc6c5C(=O)N(C5CCC(=O)NC5=O)C6=O)CC4)cc3C2)c(O)cc1O` (centres undefined), the IC50 with MX1 is 0.09 µM; with MCF7 [1], 0.03 µM; in the series with MDA-MB-468, 6.19 µM; with MDA-MB-231, 6.8 µM. Besides, the outcome in [2] and in [3] was inactive. The “Ratio IC50” value in the series on MCF7 [4] was ~35.
As to `CC(C)c1cc(C(=O)N2Cc3ccc(CN4CCN(CCCCC(=O)Nc5cccc6c5C(=O)N(C5CCC(=O)NC5=O)C6=O)CC4)cc3C2)c(O)cc1O` (centres undefined), the IC50 in the series with MX1 was 6.78 µM; in the series with MCF7 [1], 4.28 µM; in the series on MDA-MB-468, 5.27 µM; with MDA-MB-231 it was 18.8 µM. Moreover, the outcome in series [2] and in [3] was inactive.
Turning to `CC(C)c1ccc(O)c(C(=O)N2Cc3ccccc3C2)c1`, the IC50 in [5] is 3.21 µM; in [6], 1.6 µM.
Consider `CC(C)c1cc(C(=O)N2Cc3ccc(CN4CCN(CCCCCC(=O)Nc5cccc6c5C(=O)N(C5CCC(=O)NC5=O)C6=O)CC4)cc3C2)ccc1O` (centres undefined), for which the IC50 turned out to be 34.6 µM in the series on MX1, 30.5 µM in the series with MCF7 [1], 30.1 µM in the series with MDA-MB-468 and 71.8 µM in the series with MDA-MB-231.
Consider `CC(C)c1cc(C(=O)N2Cc3ccc(CN4CCN(CCCCCCCC(=O)Nc5cccc6c5C(=O)N(C5CCC(=O)NC5=O)C6=O)CC4)cc3C2)ccc1O` (centres undefined), for which the IC50 in the series with MX1 was 63 µM; in the series with MCF7 [1], 18.5 µM; in the series with MDA-MB-468, 35.9 µM; in the series on MDA-MB-231, > 100 µM.
As for `CC(C)c1cc(C(=O)N2Cc3ccc(CN4CCN(CCCCCCC(=O)Nc5cccc6c5C(=O)N(C5CCC(=O)NC5=O)C6=O)CC4)cc3C2)c(O)cc1O` (centres undefined), the IC50 came to 0.31 µM in the series with MX1, 0.92 µM with MCF7 [1], 3.67 µM in the series with MDA-MB-468 and 12.1 µM in the series on MDA-MB-231. The result in series [2] and in series [3] was inactive.
`Nc1cccc2c1C(=O)N(C1CCC(=O)NC1=O)C2=O` (centres undefined) [POMALIDOMIDE]: the outcome in series [7] was inactive. The IC50 in the series on MX1, in the series on MCF7 [1], with MDA-MB-468 and in the series on MDA-MB-231 was > 100 µM each time.
On to `CC(C)c1cc(C(=O)N2Cc3ccc(CN4CCN(C)CC4)cc3C2)c(O)cc1O` [ONALESPIB], for which, in [8], the Activity entry is “Toxic”. Also, the result in [7] and in [11] was inactive. For the same molecule, the result with 4T1 [9] was Active. In addition, the IC50 in the series with MX1 turned out to be 0.5 µM; in the series with MCF7 [1], 0.84 µM; in the series with MDA-MB-468 it was 3.31 µM; in the series with MDA-MB-231, 2.6 µM. The inhibition in vivo at 50 mg/kg with 4T1 [10] amounted to 43.2%.
As to `CC(C)c1cc(C(=O)N2Cc3ccc(CN4CCN(CCCC(=O)Nc5cccc6c5C(=O)N(C5CCC(=O)NC5=O)C6=O)CC4)cc3C2)ccc1O` (centres undefined), the IC50 with MX1 stood at 40.8 µM; in the series with MCF7 [1] it was 7.5 µM; with MDA-MB-468 it was 41.6 µM; in the series on MDA-MB-231 it was 72.8 µM.
With `CC(C)c1cc(C(=O)N2Cc3ccccc3C2)ccc1O`, the results for the IC50 in [5] and in [6] were 0.41 µM and 4.47 µM, respectively.
Regarding `Nc1cccc2c1CN(C1CCC(=O)NC1=O)C2=O` (centres undefined) [LENALIDOMIDE], the IC50 in the series on MX1, with MCF7 [1], in the series with MDA-MB-468 and in the series with MDA-MB-231 was > 100 µM throughout.
For `CC(C)c1cc(C(=O)N2Cc3ccc(CN4CCN(CCC(=O)Nc5cccc6c5C(=O)N(C5CCC(=O)NC5=O)C6=O)CC4)cc3C2)ccc1O` (centres undefined), the IC50 with MX1 is > 100 µM; in the series on MCF7 [1] it was 27.1 µM; with MDA-MB-468, > 100 µM; with MDA-MB-231, > 100 µM.
As to `CC(C)c1cc(C(=O)N2Cc3ccc(CN4CCN(C(=O)CCCCCNc5cccc6c5CN(C5CCC(=O)NC5=O)C6=O)CC4)cc3C2)c(O)cc1O` (centres undefined), the IC50 in the series with MX1 was 1.93 µM; with MCF7 [1], 4.47 µM; in the series on MDA-MB-468, 0.75 µM; in the series with MDA-MB-231, 4.79 µM. Also, the outcome in [2] and in series [3] was inactive.
With `CC(C)c1cc(C(=O)N2Cc3ccccc3C2)c(O)cc1O`, half-maximal inhibition in series [6] (IC50) required 0.004 µM.
With `CC(C)c1cc(C(=O)N2Cc3ccc(CN4CCN(CCCCCCCC(=O)Nc5cccc6c5C(=O)N(C5CCC(=O)NC5=O)C6=O)CC4)cc3C2)c(O)cc1O` (centres undefined), the IC50 was 4.94 µM in the series with MX1, 6.03 µM in the series with MCF7 [1], 30.6 µM in the series with MDA-MB-468 and 62.8 µM in the series with MDA-MB-231. The outcome in series [2] and in series [3] was inactive.
As to `CC(C)c1cc(C(=O)N2Cc3ccc(CN4CCN(CCCC(=O)Nc5cccc6c5C(=O)N(C5CCC(=O)NC5=O)C6=O)CC4)cc3C2)c(O)cc1O` (centres undefined), the IC50 in the series with MX1 is 0.22 µM; in the series on MCF7 [1] it was 0.02 µM; in the series on MDA-MB-468, 3.03 µM; with MDA-MB-231, 2.04 µM. The outcome in series [2] and in series [3] was inactive.
As for `CC(C)c1cc(C(=O)N2Cc3ccc(CN4CCN(C(=O)CCCNc5cccc6c5CN(C5CCC(=O)NC5=O)C6=O)CC4)cc3C2)c(O)cc1O` (centres undefined), the IC50 came to 1.19 µM in the series with MX1, 3.42 µM with MCF7 [1], 25.8 µM with MDA-MB-468 and 7.87 µM with MDA-MB-231. The outcome in series [2] and in [3] was inactive.
For the molecule `CC(C)c1cc(C(=O)N2Cc3ccc(CN4CCN(C(=O)CNc5cccc6c5CN(C5CCC(=O)NC5=O)C6=O)CC4)cc3C2)c(O)cc1O` (centres undefined), the IC50 with MX1 worked out at 3.46 µM; with MCF7 [1], 2.03 µM; in the series with MDA-MB-468, 5.1 µM; in the series on MDA-MB-231, 7.69 µM. The outcome in [2] and in series [3] was inactive.
